The numbers were not newly measured in US7517900B2, “Pyrazole derivatives as cannabinoid receptor modulators” (Bristol-Myers Squibb Company, priority 2003, dated 2009), which cites them from elsewhere.

One data set deals with human subjects. The conditions noted are these: 16 week trial period, Phase IIb.
For data set [1] the following is noted: chronic administration for two weeks.

As to `Cc1c(C(=O)NN2CCCCC2)nn(-c2ccc(Cl)cc2Cl)c1-c1ccc(Cl)cc1` [SR-141716], the “body weight in human subjects” value in the data set with human subjects is on record as “dose-dependently reduced body weight”.

With `Cc1c(C(=O)NN2CCCCC2)nn(-c2ccc(Cl)cc2Cl)c1-c1ccc(I)cc1` [AM-251], in data set [1], the body weight entry is on record as “substantial body weight reduction”.
